Laboratory results published in US20200054633A1 (priority 2017, published 2020).
Read-outs that look alike come from different tables or passages of the source.

Legend:
[1] = Clinical study: treatment-emergent laboratory toxicities, ECG, vital signs; type: in vivo, human; settings: for Worst treatment-emergent toxicity: Glucose hyperglycemia Grade 3 / Worst treatment-emergent toxicity: ALT increase by factor Grade 3 / Worst treatment-emergent toxicity: ALT increase by factor Grade 4 / Worst treatment-emergent toxicity: AST increase by factor Grade 4 / Worst treatment-emergent toxicity: CPK Grade 3 / Worst treatment-emergent toxicity: CPK Grade 4 / Worst treatment-emergent toxicity: Cholesterol Grade 3 / Worst treatment-emergent toxicity: Hemoglobin - change from baseline Grade 3 / Worst treatment-emergent toxicity: Hyperkalemia Grade 3 / Worst treatment-emergent toxicity: Hyperkalemia Grade 4 / Worst treatment-emergent toxicity: Hypernatremia Grade 3 / Worst treatment-emergent toxicity: Hypernatremia Grade 4 / Worst treatment-emergent toxicity: Hypocalcemia Grade 4 / Worst treatment-emergent toxicity: Hypoglycemia Grade 3 / Worst treatment-emergent toxicity: Hypokalemia Grade 3 / Worst treatment-emergent toxicity: Hypokalemia Grade 4 / Worst treatment-emergent toxicity: Hypomagnesemia Grade 3 / Worst treatment-emergent toxicity: Hyponatremia Grade 3 / Worst treatment-emergent toxicity: Hypophosphatemia Grade 3 / Worst treatment-emergent toxicity: Neutrophils decrease Grade 3 / Worst treatment-emergent toxicity: Neutrophils decrease Grade 4 / Worst treatment-emergent toxicity: Urine RBC increased Grade 3 / Worst treatment-emergent toxicity: Urine WBC increased Grade 3 / Worst treatment-emergent toxicity: Urine glucose increased Grade 3 / Worst treatment-emergent toxicity: Urine protein increased Grade 3: OST placebo; for Worst treatment-emergent toxicity: ALT increase by factor Grade 3 / Worst treatment-emergent toxicity: ALT increase by factor Grade 4 / Worst treatment-emergent toxicity: AST increase by factor Grade 4 / Worst treatment-emergent toxicity: CPK Grade 3 / Worst treatment-emergent toxicity: CPK Grade 4 / Worst treatment-emergent toxicity: Cholesterol Grade 3 / Worst treatment-emergent toxicity: Hemoglobin - change from baseline Grade 3 / Worst treatment-emergent toxicity: Hyperkalemia Grade 3 / Worst treatment-emergent toxicity: Hyperkalemia Grade 4 / Worst treatment-emergent toxicity: Hypernatremia Grade 3 / Worst treatment-emergent toxicity: Hypernatremia Grade 4 / Worst treatment-emergent toxicity: Hypocalcemia Grade 4 / Worst treatment-emergent toxicity: Hypoglycemia Grade 3 / Worst treatment-emergent toxicity: Hypokalemia Grade 3 / Worst treatment-emergent toxicity: Hypokalemia Grade 4 / Worst treatment-emergent toxicity: Hypomagnesemia Grade 3 / Worst treatment-emergent toxicity: Hyponatremia Grade 3 / Worst treatment-emergent toxicity: Hypophosphatemia Grade 3 / Worst treatment-emergent toxicity: Neutrophils decrease Grade 3 / Worst treatment-emergent toxicity: Neutrophils decrease Grade 4 / Worst treatment-emergent toxicity: Urine RBC increased Grade 3 / Worst treatment-emergent toxicity: Urine WBC increased Grade 3 / Worst treatment-emergent toxicity: Urine glucose increased Grade 3 / Worst treatment-emergent toxicity: Urine protein increased Grade 3: Safety Set 74
[2] = Clinical study: study drug discontinuation and reasons; type: in vivo, human
From the text: Given the sizable difference between the FAS and the Safety Set, summary tables are provided for both analysis sets. Table 4 and Table 5 present a summary of subjects who completed or discontinued study drug and/or the study for the FAS and the Safety Set, respectively.

[3] = test system: acute uncomplicated seasonal influenza A; assay: Clinical study: nasal viral load by qRT-PCR (AUC, LS means, time to viral negativity); type: in vivo, human; settings: for LS Means viral load (qRT-PCR) Day 3 / LS Means viral load (qRT-PCR) Day 4 / LS Means viral load (qRT-PCR) Day 6 / LS Means viral load (qRT-PCR) Day 8: log10 nasal viral load; for LS Means viral load (qRT-PCR) Day 3 / LS Means viral load (qRT-PCR) Day 4 / LS Means viral load (qRT-PCR) Day 6 / LS Means viral load (qRT-PCR) Day 8 / Change in AUC Viral Load (by qRT-PCR) Days 1 to 8 versus placebo / Time to influenza A negativity (qRT-PCR) Acceleration Factor: Full Analysis Set; for Time to influenza A negativity (qRT-PCR) Acceleration Factor: versus placebo, accelerated failure time model
Influenza A = type: in vivo, human; settings: for Acceleration Factor, time to Influenza A negativity (TCID50), treatment versus placebo: accelerated failure time model, Full Analysis Set
[4] = test system: acute uncomplicated seasonal influenza A; assay: Clinical study: time to resolution of the 7 primary influenza symptoms (Flu-iiQ); settings: for Median (95% CI): untitled table, presumably time to symptom resolution
From the text: This study followed a randomized, double-blind, placebo-controlled, parallel-group, multicenter design.
Key secondary efficacy variable: Time to resolution of influenza symptoms after initiation of study drug. Resolution of influenza symptoms was defined as the first Flu iiQ™ recording of a successive series of 3 recordings (over 4 scheduled successive analysis time points, 1 missing time point is allowed) in which all symptom scores for each of the 3 assessments were at most mild for all 7 primary influenza symptoms (cough, sore throat, headache, nasal stuffiness, feverishness or chills, muscle or joint pain, and fatigue).

[5] = Cmpd (1) 300 mg + OST placebo, Full Analysis Set
[6] = Cmpd (1) 300 mg + OST placebo, Safety Set
[7] = Cmpd (1) 600 mg + OST placebo, Full Analysis Set
[8] = Cmpd (1) 600 mg + OST placebo, Safety Set

O=C(O)[C@H]1C2CCC(CC2)[C@@H]1Nc1nc(-c2c[nH]c3ncc(F)cc23)ncc1F [Compound (1), Pimodivir]
Worst treatment-emergent toxicity: Glucose hyperglycemia Grade 3 ([1]; 300 mg, N 73): 1 (1.4%)
Worst treatment-emergent toxicity: ALT increase by factor Grade 3 ([1]; 300 mg): 0
Worst treatment-emergent toxicity: ALT increase by factor Grade 4 ([1]; 300 mg): 0
Worst treatment-emergent toxicity: AST increase by factor Grade 4 ([1]; 300 mg): 0
Worst treatment-emergent toxicity: CPK Grade 3 ([1]; 300 mg): 1 (1.4%)
Worst treatment-emergent toxicity: CPK Grade 4 ([1]; 300 mg): 0
Worst treatment-emergent toxicity: Cholesterol Grade 3 ([1]; 300 mg): 0
Worst treatment-emergent toxicity: Hemoglobin - change from baseline Grade 3 ([1]; 300 mg): 5 (7.1%)
Worst treatment-emergent toxicity: Hyperkalemia Grade 3 ([1]; 300 mg): 1 (1.4%)
Worst treatment-emergent toxicity: Hyperkalemia Grade 4 ([1]; 300 mg): 0
Worst treatment-emergent toxicity: Hypernatremia Grade 3 ([1]; 300 mg): 0
Worst treatment-emergent toxicity: Hypernatremia Grade 4 ([1]; 300 mg): 0
Worst treatment-emergent toxicity: Hypocalcemia Grade 4 ([1]; 300 mg): 1 (1.4%)
Worst treatment-emergent toxicity: Hypoglycemia Grade 3 ([1]; 300 mg): 0
Worst treatment-emergent toxicity: Hypokalemia Grade 3 ([1]; 300 mg): 0
Worst treatment-emergent toxicity: Hypokalemia Grade 4 ([1]; 300 mg): 0
Worst treatment-emergent toxicity: Hypomagnesemia Grade 3 ([1]; 300 mg): 1 (1.4%)
Worst treatment-emergent toxicity: Hyponatremia Grade 3 ([1]; 300 mg): 0
Worst treatment-emergent toxicity: Hypophosphatemia Grade 3 ([1]; 300 mg): 2 (2.7%)
Worst treatment-emergent toxicity: Neutrophils decrease Grade 3 ([1]; 300 mg): 1 (1.4%)
Worst treatment-emergent toxicity: Neutrophils decrease Grade 4 ([1]; 300 mg): 0
Worst treatment-emergent toxicity: Urine RBC increased Grade 3 ([1]; 300 mg): 3 (9.4%)
Worst treatment-emergent toxicity: Urine WBC increased Grade 3 ([1]; 300 mg): 0
Worst treatment-emergent toxicity: Urine glucose increased Grade 3 ([1]; 300 mg): 1 (1.4%)
Worst treatment-emergent toxicity: Urine protein increased Grade 3 ([1]; 300 mg): 0
Worst treatment-emergent toxicity: Glucose hyperglycemia Grade 3 ([1]; 600 mg, N 70): 0
Worst treatment-emergent toxicity: ALT increase by factor Grade 3 ([1]; 600 mg): 1
Worst treatment-emergent toxicity: ALT increase by factor Grade 4 ([1]; 600 mg): 1
Worst treatment-emergent toxicity: AST increase by factor Grade 4 ([1]; 600 mg): 1
Worst treatment-emergent toxicity: CPK Grade 3 ([1]; 600 mg): 2
Worst treatment-emergent toxicity: CPK Grade 4 ([1]; 600 mg): 1
Worst treatment-emergent toxicity: Cholesterol Grade 3 ([1]; 600 mg): 4
Worst treatment-emergent toxicity: Hemoglobin - change from baseline Grade 3 ([1]; 600 mg): 3
Worst treatment-emergent toxicity: Hyperkalemia Grade 3 ([1]; 600 mg): 1
Worst treatment-emergent toxicity: Hyperkalemia Grade 4 ([1]; 600 mg): 2
Worst treatment-emergent toxicity: Hypernatremia Grade 3 ([1]; 600 mg): 0
Worst treatment-emergent toxicity: Hypernatremia Grade 4 ([1]; 600 mg): 0
Worst treatment-emergent toxicity: Hypocalcemia Grade 4 ([1]; 600 mg): 0
Worst treatment-emergent toxicity: Hypoglycemia Grade 3 ([1]; 600 mg): 2
Worst treatment-emergent toxicity: Hypokalemia Grade 3 ([1]; 600 mg): 1
Worst treatment-emergent toxicity: Hypokalemia Grade 4 ([1]; 600 mg): 1
Worst treatment-emergent toxicity: Hypomagnesemia Grade 3 ([1]; 600 mg): 0
Worst treatment-emergent toxicity: Hyponatremia Grade 3 ([1]; 600 mg): 0
Worst treatment-emergent toxicity: Hypophosphatemia Grade 3 ([1]; 600 mg): 0
Worst treatment-emergent toxicity: Neutrophils decrease Grade 3 ([1]; 600 mg): 4
Worst treatment-emergent toxicity: Neutrophils decrease Grade 4 ([1]; 600 mg): 0
Worst treatment-emergent toxicity: Urine RBC increased Grade 3 ([1]; 600 mg): 5
Worst treatment-emergent toxicity: Urine WBC increased Grade 3 ([1]; 600 mg): 2
Worst treatment-emergent toxicity: Urine glucose increased Grade 3 ([1]; 600 mg): 0
Worst treatment-emergent toxicity: Urine protein increased Grade 3 ([1]; 600 mg): 2
laboratory values, electrocardiograms, and vital signs ([1]; clinical study): No safety concerns were noted
Drug termination: Discontinued [2, 5]: 20.7%
Drug termination: Discontinued, Adverse event [2, 5]: (10.3%)
Drug termination: Discontinued ([2]; Cmpd (1) 300 mg + OST placebo, Full Analysis Set, listed as Cmpd (1)): (20.7%)
Drug termination: Discontinued [2, 6]: 14 (18.9%)
Drug termination: Discontinued, Adverse event [2, 6]: 7 (9.5%)
Drug termination: Discontinued [2, 7]: 14.0%
Drug termination: Discontinued, Adverse event [2, 7]: (5.3%)
Drug termination: Discontinued ([2]; Cmpd (1) 600 mg + OST placebo, Full Analysis Set, listed as Cmpd (1)): (14.0%)
Drug termination: Discontinued [2, 8]: 12 (16.2%)
Drug termination: Discontinued, Adverse event [2, 8]: 3 (4.1%)
LS Means viral load (qRT-PCR) Day 3 ([3]; Cmpd (1) 300 mg + OST placebo): 5.2
LS Means viral load (qRT-PCR) Day 4 ([3]; Cmpd (1) 300 mg + OST placebo): 3.9
LS Means viral load (qRT-PCR) Day 6 ([3]; Cmpd (1) 300 mg + OST placebo): 2.5
LS Means viral load (qRT-PCR) Day 8 ([3]; Cmpd (1) 300 mg + OST placebo): 1.4
LS Means viral load (qRT-PCR) Day 3 ([3]; Cmpd (1) 600 mg + OST placebo): 4.9
LS Means viral load (qRT-PCR) Day 4 ([3]; Cmpd (1) 600 mg + OST placebo): 3.8
LS Means viral load (qRT-PCR) Day 6 ([3]; Cmpd (1) 600 mg + OST placebo): 2.5
LS Means viral load (qRT-PCR) Day 8 ([3]; Cmpd (1) 600 mg + OST placebo): 1.0
reduction of time to viral negativity (qRT-PCR) versus placebo ([3]; Compound (1) 300 mg bid): 13%
Change in AUC Viral Load (by qRT-PCR) Days 1 to 8 versus placebo ([3]; Compound (1) 300 mg bid): −3.6 day*log10 copies/mL
reduction of time to viral negativity (qRT-PCR) versus placebo ([3]; Compound (1) 600 mg bid): 18%
Change in AUC Viral Load (by qRT-PCR) Days 1 to 8 versus placebo ([3]; Compound (1) 600 mg bid): −4.5 day*log10 copies/mL
effect on AUC of viral load (by qRT-PCR) over 7 days from start of dosing ([3]; Compound (1) treatment versus placebo): statistically significant and dose-dependent decrease in AUC of viral load
Time to influenza A negativity (qRT-PCR) Acceleration Factor ([3]; Cmpd (1) 300 mg + OST placebo): 0.87
Time to influenza A negativity (qRT-PCR) Acceleration Factor ([3]; Cmpd (1) 600 mg + OST placebo): 0.82
Acceleration Factor, time to Influenza A negativity (TCID50), treatment versus placebo (Influenza A; Cmpd (1) 300 mg + OST placebo): 0.71
Acceleration Factor, time to Influenza A negativity (TCID50), treatment versus placebo (Influenza A; Cmpd (1) 600 mg + OST placebo): 0.72
reduction in time to negative viral load (viral culture) versus placebo (Influenza A; Compound (1) 300 mg bid): 29%
reduction in time to negative viral load (viral culture) versus placebo (Influenza A; Compound (1) 600 mg bid): 28%
Median (95% CI) ([4]; Cmpd (1) 300 mg): 99.0 (71.5;
Median (95% CI) ([4]; Cmpd (1) 600 mg): 85.7 (55.3;
increase in time to resolution of the 7 primary influenza symptoms versus placebo ([4]; Compound (1) 300 mg bid, accelerated failure time model): 7%
